As usually defined, the Kd is the concentration at which binding is half-saturated.

Like-named read-outs stand apart in the source and are kept apart here. Ends that are not written are not given here.

One experiment relates to hIRE1α. The settings on record: available binding affinities to hIRE1α; fluorescence anisotropy; ref Karagöz et al., 2017; Kettel et al., 2024; cited from earlier work. The source says:
page 1: Structural Dynamics of IRE1 and its Interaction with Unfolded Peptides Supplementary File 2 Polypeptide K1/2 [µM] […] References Elif Karag¨oz G, Acosta-Alvear D, Nguyen HT, Lee CP, Chu F, Walter P. An unfolded protein-induced conformational switch activates mammalian IRE1. eLife. 2017;6:e30700. Kettel P, Marosits L, Spinetti E, Rechberger M, Giannini C, Radler P, et al. Disordered regions in the IRE1 ER lumenal domain medi ...
(Polarisation of emitted light reports the rotation of a fluorescent probe.)

The next experiment addresses T1, hIRE1α LD wild-type (Homo sapiens, UniProt O75460).
T1 construct: His6 (N, cleaved yes); made in house; host or cells: Escherichia coli BL21DE3* RIPL
T1 sequence (O75460 24-443): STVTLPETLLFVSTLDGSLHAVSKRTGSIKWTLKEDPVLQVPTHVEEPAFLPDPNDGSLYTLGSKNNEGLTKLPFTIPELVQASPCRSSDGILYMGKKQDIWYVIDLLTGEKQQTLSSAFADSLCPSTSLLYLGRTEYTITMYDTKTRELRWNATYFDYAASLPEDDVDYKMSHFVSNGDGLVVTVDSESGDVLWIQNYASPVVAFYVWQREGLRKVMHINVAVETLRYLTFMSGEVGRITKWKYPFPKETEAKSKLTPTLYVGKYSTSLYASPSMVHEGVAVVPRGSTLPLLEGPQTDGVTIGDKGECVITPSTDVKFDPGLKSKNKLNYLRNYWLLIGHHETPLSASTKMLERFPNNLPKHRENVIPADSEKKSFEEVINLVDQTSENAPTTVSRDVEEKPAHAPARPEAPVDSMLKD
Briefly: Fluorescence anisotropy, binding of labeled MPZ1N-2X to hIRE1α LD WT. How it is done: (§1) To express hIRE1α LD (24–443) human cDNA sequences were cloned into pET47b(+) to create a coding sequence with N-terminal His6-tag. Mutations of hIRE1α LD were introduced by overlap extension PCR and restriction cloning into pET47b(+). For expression of the proteins, the plasmid of interest was transformed into Escherichia coli strain BL21DE3* RIPL (Agilent Technologies). Cells were grown in Luria Broth until OD600 = 0.6–0.8. Protein expression was induced with 0.6 mM IPTG, and cells were grown in 20°C overnight. For purification, cells after harvesting were resuspended in Lysis Buffer (50 mM HEPES pH 7.2, 400 mM NaCl, 20 mM imidazole, 5% glycerol, 5 mM β -mercaptoethanol) and were lysed in Constans Systems cell disruptor at 25,000 psi. […] Protein concentrations were determined using the extinction coefficient at 280 nm predicted by the Expasy ProtParam tool (http://web.expasy.org/protparam/).
(§2) For fluorescence anisotropy measurements, the MPZ1-N-2X peptide attached to 5 carboxyfluorescein (5-FAM) at its N-terminus was obtained from GenScript at >95% purity. Binding affinities of hIRE1α LD mutants to FAM-labeled peptides were determined by measuring the change in fluorescence anisotropy on a Tecan CM Spark Micro Plate Reader with excitation at 485 nm and emission at 525 nm with increasing concentrations of hIRE1α LD variants. […]

For a further experiment, the target named is T2, hIRE1α LD E102R (Homo sapiens, UniProt O75460, E102R).
T2 construct: His6 (N, cleaved yes); made in house; host or cells: Escherichia coli BL21DE3* RIPL
T2 sequence (O75460 24-443 E102R): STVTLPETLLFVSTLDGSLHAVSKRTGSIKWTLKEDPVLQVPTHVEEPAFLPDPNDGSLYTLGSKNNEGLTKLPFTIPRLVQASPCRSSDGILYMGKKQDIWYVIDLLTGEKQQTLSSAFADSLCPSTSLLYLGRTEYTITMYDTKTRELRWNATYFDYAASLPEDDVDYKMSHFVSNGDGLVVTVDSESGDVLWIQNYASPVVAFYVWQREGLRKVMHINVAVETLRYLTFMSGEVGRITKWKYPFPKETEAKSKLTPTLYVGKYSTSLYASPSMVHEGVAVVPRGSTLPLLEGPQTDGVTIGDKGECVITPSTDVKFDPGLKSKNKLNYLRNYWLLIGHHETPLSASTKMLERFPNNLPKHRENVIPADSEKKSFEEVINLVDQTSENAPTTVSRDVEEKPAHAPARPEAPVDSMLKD
Briefly: Fluorescence anisotropy, binding of labeled MPZ1N-2X to hIRE1α LD E102R. Here is the method: as §1, §2

A further experiment deals with T3, hIRE1α LD Y161R (Homo sapiens, UniProt O75460, Y161R).
T3 construct: His6 (N, cleaved yes); made in house; host or cells: Escherichia coli BL21DE3* RIPL
T3 sequence (O75460 24-443 Y161R): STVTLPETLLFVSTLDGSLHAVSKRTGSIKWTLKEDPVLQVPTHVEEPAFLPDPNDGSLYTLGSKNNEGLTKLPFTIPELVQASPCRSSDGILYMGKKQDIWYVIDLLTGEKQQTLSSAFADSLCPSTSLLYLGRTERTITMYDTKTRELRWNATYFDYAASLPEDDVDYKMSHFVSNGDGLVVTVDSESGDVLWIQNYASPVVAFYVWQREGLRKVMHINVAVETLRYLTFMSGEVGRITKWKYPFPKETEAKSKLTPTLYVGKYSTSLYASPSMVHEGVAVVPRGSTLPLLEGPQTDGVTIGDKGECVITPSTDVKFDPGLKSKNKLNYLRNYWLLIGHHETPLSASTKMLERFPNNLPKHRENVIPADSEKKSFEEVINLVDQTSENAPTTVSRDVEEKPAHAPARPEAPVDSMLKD
Briefly: Fluorescence anisotropy, binding of labeled MPZ1N-2X to hIRE1α LD Y161R. The settings on record: 95% confidence interval of KD. How it is done:
as §1, §2

Experiment [1] deals with T4, MPZ1N-2X peptide, 5-FAM labelled (5 carboxyfluorescein (5-FAM) at its N-terminus).
T4 construct: model unfolded peptide derived from Myelin Protein Zero (MPZ); not a plain stretch of the natural protein; source: synthetic peptide; bought: GenScript (>95% purity)
T4 peptide: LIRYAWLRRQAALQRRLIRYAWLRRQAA
Briefly: fluorescence polarisation; fluorescence anisotropy; 90 nM 5-FAM-labelled peptide with increasing concentrations of hIRE1α LD variants; 25 mM HEPES pH 7.2, 150 mM NaCl, 2 mM DTT, 0.025% Tween 20; 30 min at 25°C; Hill fit, apparent K1/2 (does not reflect the dissociation constant). The following applies: both partners purified.

The mark [2] stands for this setting: 95% confidence interval of KD, read-out: KD 95% confidence interval.

“LIDYAWLDDQAALQDDLIDYAWLDDQAA [MPZ1N-2X-RD, MPZ1N-2X with all the arginines mutated to aspartic acid]”: the K1/2 entry with hIRE1α was “binding impaired”.
As to “LIRYAWLRRQAA [MPZ1-N, unfolded peptide derived from Myelin Protein Zero, …]”, the K1/2 in the experiment with hIRE1α is on record as 16 µM.
For LIRYAWLRRQAALQRRLIRYAWLRRQAA [MPZ1N-2X], the equilibrium dissociation constant (Kd) is 1.81 to 2.53 µM at hIRE1α LD wild-type (setting [2]); 2.14 µM at hIRE1α LD wild-type (fluorescence anisotropy, 5-FAM-labeled peptide 90 nM, pH 7.2, 30 min, 25°C, R2 0.9918, read-out: KD); 5.84 to 6.96 µM on hIRE1α LD E102R (setting [2]); 6.35 µM on hIRE1α LD E102R (fluorescence anisotropy, 5-FAM-labeled peptide 90 nM, pH 7.2, 30 min, 25°C, R2 0.9992, read-out: KD); 4.3 to 7.1 µM on hIRE1α LD Y161R.
For “LQRRISAME [MPZ1-C, peptide derived from Myelin Protein Zero, …]”, the K1/2 with hIRE1α is 572 µM.

B1: human IRE1α luminal domain (hIRE1α LD, 24–443), wild type (domain or fragment, UniProt O75460 24-443, looked up)
chain: STVTLPETLLFVSTLDGSLHAVSKRTGSIKWTLKEDPVLQVPTHVEEPAFLPDPNDGSLYTLGSKNNEGLTKLPFTIPELVQASPCRSSDGILYMGKKQDIWYVIDLLTGEKQQTLSSAFADSLCPSTSLLYLGRTEYTITMYDTKTRELRWNATYFDYAASLPEDDVDYKMSHFVSNGDGLVVTVDSESGDVLWIQNYASPVVAFYVWQREGLRKVMHINVAVETLRYLTFMSGEVGRITKWKYPFPKETEAKSKLTPTLYVGKYSTSLYASPSMVHEGVAVVPRGSTLPLLEGPQTDGVTIGDKGECVITPSTDVKFDPGLKSKNKLNYLRNYWLLIGHHETPLSASTKMLERFPNNLPKHRENVIPADSEKKSFEEVINLVDQTSENAPTTVSRDVEEKPAHAPARPEAPVDSMLKD
notes: Inositol-requiring enzyme 1 alpha (IRE1α), human, luminal domain, residues 24-443, cloned from human cDNA into pET47b(+); also called hIRE1α LD WT; WT; source: E. coli BL21DE3* RIPL, purified (Ni-NTA, HiTRAP-Q, Superdex 200); not shown: His6, N-terminal, cleaved
On to B1, for which the “K1/2 (apparent)” value in experiment [1] is 2.14 µM.

B2: human IRE1α luminal domain (hIRE1α LD, 24–443) Y161R (domain or fragment, UniProt O75460 24-443, looked up)
chain: STVTLPETLLFVSTLDGSLHAVSKRTGSIKWTLKEDPVLQVPTHVEEPAFLPDPNDGSLYTLGSKNNEGLTKLPFTIPELVQASPCRSSDGILYMGKKQDIWYVIDLLTGEKQQTLSSAFADSLCPSTSLLYLGRTERTITMYDTKTRELRWNATYFDYAASLPEDDVDYKMSHFVSNGDGLVVTVDSESGDVLWIQNYASPVVAFYVWQREGLRKVMHINVAVETLRYLTFMSGEVGRITKWKYPFPKETEAKSKLTPTLYVGKYSTSLYASPSMVHEGVAVVPRGSTLPLLEGPQTDGVTIGDKGECVITPSTDVKFDPGLKSKNKLNYLRNYWLLIGHHETPLSASTKMLERFPNNLPKHRENVIPADSEKKSFEEVINLVDQTSENAPTTVSRDVEEKPAHAPARPEAPVDSMLKD
notes: Inositol-requiring enzyme 1 alpha (IRE1α), human, luminal domain, residues 24-443, with Y161R introduced by overlap extension PCR; source: E. coli BL21DE3* RIPL, purified (Ni-NTA, HiTRAP-Q, Superdex 200); not shown: His6, N-terminal, cleaved
Take B2: the “K1/2 (apparent)” value in experiment [1] stood at 5.4 µM.

B3: human IRE1α luminal domain (hIRE1α LD, 24–443) E102R (domain or fragment, UniProt O75460 24-443, looked up)
chain: STVTLPETLLFVSTLDGSLHAVSKRTGSIKWTLKEDPVLQVPTHVEEPAFLPDPNDGSLYTLGSKNNEGLTKLPFTIPRLVQASPCRSSDGILYMGKKQDIWYVIDLLTGEKQQTLSSAFADSLCPSTSLLYLGRTEYTITMYDTKTRELRWNATYFDYAASLPEDDVDYKMSHFVSNGDGLVVTVDSESGDVLWIQNYASPVVAFYVWQREGLRKVMHINVAVETLRYLTFMSGEVGRITKWKYPFPKETEAKSKLTPTLYVGKYSTSLYASPSMVHEGVAVVPRGSTLPLLEGPQTDGVTIGDKGECVITPSTDVKFDPGLKSKNKLNYLRNYWLLIGHHETPLSASTKMLERFPNNLPKHRENVIPADSEKKSFEEVINLVDQTSENAPTTVSRDVEEKPAHAPARPEAPVDSMLKD
notes: Inositol-requiring enzyme 1 alpha (IRE1α), human, luminal domain, residues 24-443, with E102R introduced by overlap extension PCR; source: E. coli BL21DE3* RIPL, purified (Ni-NTA, HiTRAP-Q, Superdex 200); not shown: His6, N-terminal, cleaved
Turning to B3, the “K1/2 (apparent)” value in experiment [1] was 6.35 µM.

(Values after article PMC13395458, “Structural dynamics of IRE1 and its interaction with unfolded peptides” (eLife, 2026).)
